The values below come from ChEMBL document CHEMBL5584232, “Hijacking monopolar spindle 1 (MPS1) for various cancer types by small molecular inhibitors: Deep insights from a decade of research and patents” (Eur J Med Chem, 2024).

Series [1] relates to CAL-51. The series can be described thus: Antiproliferative activity against human CAL-51 cells assessed as inhibition of cell growth incubated for 72 hrs by MTT assay. The format is functional, cell-based. As to conditions: CAL-51, 72 h. For orientation: Tetrazolium dyes change colour on reduction, which living cells bring about.
The target of series [2] is T1, Dual specificity protein kinase TTK (Homo sapiens, UniProt P33981).
T1 sequence (P33981 whole entry): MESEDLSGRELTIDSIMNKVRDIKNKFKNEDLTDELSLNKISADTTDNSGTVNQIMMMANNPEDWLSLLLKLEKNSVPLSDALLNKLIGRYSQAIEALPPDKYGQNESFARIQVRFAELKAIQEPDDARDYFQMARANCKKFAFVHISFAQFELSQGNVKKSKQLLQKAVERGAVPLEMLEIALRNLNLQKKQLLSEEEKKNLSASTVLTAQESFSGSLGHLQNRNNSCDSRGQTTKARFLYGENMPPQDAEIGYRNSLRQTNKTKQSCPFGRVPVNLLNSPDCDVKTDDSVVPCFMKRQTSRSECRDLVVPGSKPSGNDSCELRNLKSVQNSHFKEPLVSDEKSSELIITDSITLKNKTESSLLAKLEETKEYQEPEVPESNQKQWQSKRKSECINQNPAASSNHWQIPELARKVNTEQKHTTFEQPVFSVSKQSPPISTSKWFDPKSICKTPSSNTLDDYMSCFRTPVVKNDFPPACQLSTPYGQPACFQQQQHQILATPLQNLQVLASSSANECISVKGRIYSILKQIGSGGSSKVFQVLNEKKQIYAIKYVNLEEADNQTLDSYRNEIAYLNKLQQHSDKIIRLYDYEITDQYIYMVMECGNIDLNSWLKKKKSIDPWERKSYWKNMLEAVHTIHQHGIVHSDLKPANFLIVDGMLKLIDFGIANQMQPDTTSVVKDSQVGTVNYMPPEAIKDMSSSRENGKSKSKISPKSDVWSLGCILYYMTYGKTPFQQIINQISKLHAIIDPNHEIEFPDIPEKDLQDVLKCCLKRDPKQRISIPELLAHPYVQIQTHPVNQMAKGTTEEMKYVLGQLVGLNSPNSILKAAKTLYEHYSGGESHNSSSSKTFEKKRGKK
The series can be described thus: Inhibition of human recombinant TTK expressed in Escherichia coli Rossetta 2 (DE3) incubated for 1 hr by TR-FRET assay. For orientation: In TR-FRET formats the signal depends on donor and acceptor labels being close together.

Series [3] is described as follows: AUC in mouse. The series is classed as ADME, organism-based. As to conditions: in vivo.
The nature of series [4]: Half life in mouse. As to conditions: in vivo. The series is classed as ADME, organism-based.
Series [5] has as its system COLO 205. The series can be described thus: Antiproliferative activity against human COLO 205 cells assessed as reduction in cell viability incubated for 48 hrs by MTT assay. The series is classed as functional, cell-based. To be noted: COLO 205, 48 h.
Series [6] addresses T1, Dual specificity protein kinase TTK. The series can be described thus: Inhibition of MPS1 (unknown origin).
In series [7] the test system is MOLT-4. The series can be described thus: Antiproliferative activity against human MOLT-4 cells assessed as reduction in cell growth incubated for 72 hrs by MTT assay. The series is classed as functional, cell-based. To be noted: MOLT-4, 72 h.
In series [8] the target is T2, Aurora kinase A (Homo sapiens, UniProt O14965).
T2 sequence (O14965 whole entry): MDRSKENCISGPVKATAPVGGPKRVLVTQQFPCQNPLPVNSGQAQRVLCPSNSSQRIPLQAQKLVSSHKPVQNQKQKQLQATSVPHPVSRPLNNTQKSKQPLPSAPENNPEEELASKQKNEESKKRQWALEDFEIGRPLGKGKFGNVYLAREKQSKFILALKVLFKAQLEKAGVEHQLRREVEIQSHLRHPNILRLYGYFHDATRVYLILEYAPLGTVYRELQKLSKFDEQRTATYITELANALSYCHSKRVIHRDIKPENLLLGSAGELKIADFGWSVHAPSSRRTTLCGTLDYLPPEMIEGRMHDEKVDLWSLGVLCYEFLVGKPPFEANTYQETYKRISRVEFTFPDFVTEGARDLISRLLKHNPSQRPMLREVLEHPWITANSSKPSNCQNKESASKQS
The series can be described thus: Inhibition of AURORA-A (unknown origin).

A short description of series [9]: Metabolic stability in mouse liver microsomes assessed as drug metabolism measured after 30 mins. To be noted: read-out: Drug metabolism. The series is classed as ADME, Microsome.
The test system of series [10] is OVCAR-5. The series can be described thus: Anticancer activity against human OVCAR-5 cells assessed as cell growth inhibition measured after 72 hrs by DAPI staining based analysis. The series is classed as functional.
Series [11] has as its system OVCAR-3. The series can be described thus: Anticancer activity against human OVCAR-3 cells assessed as cell growth inhibition measured after 72 hrs by DAPI staining based analysis. The format is functional.
Series [12] concerns OVCAR-8. The series can be described thus: Anticancer activity against human OVCAR-8 cells assessed as cell growth inhibition measured after 72 hrs by DAPI staining based analysis. The series is classed as functional.
In series [13] the test system is IGROV-1. The series can be described thus: Anticancer activity against human IGROV-1 cells assessed as cell growth inhibition measured after 72 hrs by DAPI staining based analysis. The series is classed as functional.
Series [14] relates to NCI/ADR-RES. The series can be described thus: Anticancer activity against human NCI-ADR-RES cells assessed as cell growth inhibition measured after 72 hrs by DAPI staining based analysis. The format is functional.
For series [15], the system named is IGROV-1. The series can be described thus: Growth inhibition of human IGROV-1 cells measured after 72 hrs by SRB method. The series is classed as functional. A general note: Sulforhodamine B stains cellular protein and so reports cell mass.
Series [16] has as its system SK-OV-3. The series can be described thus: Anticancer activity against human SK-OV-3 cells assessed as cell growth inhibition measured after 72 hrs by DAPI staining based analysis. The format is functional.
In series [17] the test system is OVCAR-4. The series can be described thus: Growth inhibition of human OVCAR-4 cells measured after 72 hrs by SRB method. The series is classed as functional.
Series [18] concerns OVCAR-4. The series can be described thus: Anticancer activity against human OVCAR-4 cells assessed as cell growth inhibition measured after 72 hrs by DAPI staining based analysis. The format is functional.
Series [19] is described as follows: Intrinsic clearance in human liver microsomes. The series is classed as ADME, Microsome.
Series [20] relates to MDA-MB-468. The series can be described thus: Growth inhibition of human MDA-MB-468 cells incubated for 48 hrs by SRB assay. The format is functional.
Series [21] has as its system HCT-116. The series can be described thus: Antitumor activity against human HCT-116 cells xenografted in athymic nude BALB/c mouse assessed as reduction in tumor growth at 12.5 mg/kg, ip administered every other day and measured every other day for 16 days. The format is functional. As to conditions: HCT-116, 384 h, time 16 day, read-out: TGI.
The subject of series [22] is HCT-116. The series can be described thus: Growth inhibition of human HCT-116 cells incubated for 48 hrs by SRB assay. The format is functional.
The test system of series [23] is A549. The series can be described thus: Growth inhibition of human A549 cells incubated for 48 hrs by SRB assay. The format is functional.
The target in series [24] is CYP450 (Homo sapiens, UniProt P04798+P05177+P05181+P08684+P10632+P10635+P11509+P11712+P13584+P20813+P20815+P20853+P24462+P24903+P33260+P33261+P51589+P78329+P98187+Q02928+Q08477+Q16678+Q16696+Q5TCH4+Q6VVX0+Q7Z449+Q8TAV3+Q96SQ9+Q9HB55). The series can be described thus: Inhibition of CYP450 (unknown origin). The format is ADME, protein assay.
Series [25] can be described thus: Clearance in rat at 1 mg/kg, po. To be noted: in vivo. The series is classed as ADME, organism-based.
Series [26] in a line: Oral bioavailability in rat at 1 mg/kg. The series is classed as ADME, organism-based. To be noted: in vivo.

SMILES strings stand for the structures.

The IC50 is the midpoint of a concentration-inhibition curve. Regarding `COc1cc(C(=O)NC(C)(C)CO)ccc1Nc1nc(OC2CCCC2)c2c(-c3ccc4nc(C)oc4c3)c[nH]c2n1`, the IC50 in [1] was determined as 100 nM.

Consider `CNC(=O)c1ccc(Nc2nc(O[C@H]3CCOC3)c3c(-c4ccc5nc(C)oc5c4)c[nH]c3n2)c(OC)c1`, for which the IC50 in series [1] worked out at 18 nM.

As to `COc1cc(N2CCC(O)CC2)ccc1Nc1nc(Nc2ccccc2S(=O)(=O)C(C)C)c2nc[nH]c2n1`, the IC50 in series [2] was 15 nM.

Usually AUC stands for concentration integrated over time. A high value points to high exposure. For orientation: half-life means the time in which the quantity being followed falls by half. Low values mean rapid decline, high ones slow decline. As to `CCC(=O)N[C@H]1CC[C@@H](n2c(=O)cc(C)c3cnc(Nc4ccc(N5CCN(C(=O)CCCCC#Cc6ccc7c(c6)CN(C6CCC(=O)NC6=O)C7=O)CC5)cc4OC)nc32)CC1` (stereo partly drawn), the AUC in series [3] is 2.33 µM·h. Further, the half-life in series [4] was 3.2 h. In [5], the IC50 came to 200 nM.

Take `CN1CCC(c2ccc(Nc3ncc4c(n3)-n3ccc(C(N)=O)c3CC4)cc2)CC1`: the IC50 in series [6] stood at 8.7 nM.

Take `COc1cc(N2CCN(C)CC2)ccc1Nc1ncc2c(n1)-n1ccc(C(=O)Nc3c(C)cccc3F)c1CC2`: in series [7], the IC50 is 11 nM.

For `CN(C)C(=O)c1ccc(Nc2cc3c(cn2)cc(C(=O)N(C)C)n3C(=O)OC(C)(C)C)c(Cl)c1`, in series [8], the IC50 was determined as 23000 nM. Further, in series [9], the metabolised at 0.5 h is 48%.

On to `CN(C)C(=O)c1cc2cnc(Nc3ccc(S(=O)(=O)N(C)C)cc3Cl)cc2[nH]1`, for which the IC50 in series [8] is greater than 40000 nM. Also, in series [9], the metabolised at 0.5 h turned out to be 25%.

The TGI is the concentration giving total growth inhibition. As a reminder, the GI50 is the concentration that inhibits growth by half. Lower therefore signals greater sensitivity of the cells. With `O=c1c2cc(Cl)ccc2sc2c(NCCCNCCO)nc3ccccc3c12`, the TGI is 3500 nM in series [10]; 3510 nM in series [11]; 3320 nM in [12]; 3600 nM in series [13]; 3630 nM in series [14]; 3380 nM in [16]. For the same compound, the TGI in series [18] stood at 3230 nM. Moreover, the GI50 in [15] and in [17] was 1600 nM throughout.

Take `CCC(=O)N[C@H]1CC[C@@H](n2c(=O)cc(C)c3cnc(Nc4ccc(N5CCN(C(=O)CCC#Cc6ccc7c(c6)CN(C6CCC(=O)NC6=O)C7=O)CC5)cc4OC)nc32)CC1` (stereo partly drawn): the AUC in [3] is 2.23 µM·h. Also, the half-life in [4] is 4.3 h. Also, the IC50 in series [5] stood at 100 nM.

`COc1cc(C(=O)N(C)C)ccc1Nc1nc(OC2CCCC2)c2cc[nH]c2n1`: the IC50 in [6] is 1 nM.

In series [19], `CCOc1cc(-c2nncn2C)ccc1Nc1ncc2cc(C)nc(NCC(C)(C)C)c2n1` [BOS-172722] had a CLH of 8 µL/min/µg.

For `NS(=O)(=O)c1cccc(-c2n[nH]c3ccc(NC(=O)C(c4ccsc4)N4CCCC4)cc23)c1` (stereo not drawn), the GI50 in [20] was found to be 70 nM; in [22], 100 nM; in series [23], 100 nM. In [21], the inhibition in vivo at 12.5 mg/kg was found to be 66%. In series [24], this compound returned an IC50 of 900 nM.

The term CL/F denotes clearance divided by bioavailability, as obtained after extravascular dosing. As for `CC(=O)Nc1cccc(-c2n[nH]c3cc(-c4cnn(C)c4)c(NC4CCCCC4)cc23)c1`, in series [25], the CL/F stood at 33 mL/min/kg.

Usually bioavailability stands for dose-corrected exposure relative to a reference, in per cent. Low readings indicate poor availability, high ones good availability. Turning to `Cn1cc(-c2cc3[nH]nc(-c4cccc(S(N)(=O)=O)c4)c3cc2OC2CCCCC2)cn1`, in series [26], the bioavailability amounted to 17%.
